Results taken from US12568969B2, “Pyridine compounds for controlling invertebrate pests” (FMC Corporation, priority 2020, dated 2026).

Legend:
[1] = test system: potato leafhopper (Empoasca fabae (Harris)); experiment: Test C: control of potato leafhopper on Soleil bean plant, spray; type: in vivo; conditions: for mortality at 250 ppm: Empoasca fabae, 144 h, 6 days; for Control Efficacy PLH: potato leafhopper
Procedure: (§1) Test compounds were formulated using a solution containing 10% acetone, […] and 300 ppm Activator 909 non-ionic surfactant (Loveland Products, Loveland, Colorado, USA). The formulated compounds were applied in 1 mL of liquid through an atomizer nozzle positioned 1.27 cm (0.5 inches) above the top of each test unit. Test compounds were sprayed at the rates indicated, and each test was replicated three times.
For evaluating control of potato leafhopper (Empoasca fabae (Harris)) through contact and/or systemic means, the test unit consisted of a small open container with a 5-6-day-old Soleil bean plant (primary leaves emerged) inside. White sand was added to the top of the soil, and one of the primary leaves was excised prior to application of the test compound.
[…] After spraying of the formulated test compound, the test units were allowed to dry for 1 hour before they were post-infested with 5 potato leafhoppers (18-to-21-day-old adults). A black, screened cap was placed on the top of the test unit, and the test units were held for 6 days in a growth chamber at 20° C. and 70% relative humidity. Each test unit was then visually assessed for insect mortality.

[2] = test system: cotton melon aphid (Aphis gossypii (Glover)); experiment: whole plant or invertebrate; type: in vivo; conditions: for mortality at 50 ppm / mortality at 250 ppm: Aphis gossypii, 144 h, 6 days; for Control Efficacy CMA: cotton melon aphid
Method in brief: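 Compounds were formulated in a solution of 10% acetone, […] and 300 ppm Activator 909 non-ionic surfactant and sprayed as 1 mL through an atomizer nozzle 1.27 cm (0.5 inches) above each test unit, with three replicates. Units were pre-infested with 30-40 aphids on leaf pieces via the cut-leaf method, soil covered with sand, then kept 6 days at 19° C. and 70% relative humidity before visual mortality scoring.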

[3] = test system: diamondback moth (Plutella xylostella (L.)); experiment: Test A: control of diamondback moth on mustard plant, spray; type: in vivo; conditions: sprayed at 250 ppm; assessed after 6 days
Procedure: as §1
For evaluating control of diamondback moth (Plutella xylostella (L.)) the test unit consisted of a small open container with a 12-14-day-old mustard plant inside. This was pre-infested with ˜50 neonate larvae that were dispensed into the test unit via corn cob grits using an inoculator. The larvae moved onto the test plant after being dispensed into the test unit.
Test compounds were formulated and sprayed at 250 ppm. After spraying of the formulated test compound, each test unit was allowed to dry for 1 hour and then a black, screened cap was placed on top. The test units were held for 6 days in a growth chamber at 25° C. and 70% relative humidity. Plant feeding damage was then visually assessed based on foliage consumed, and larvae were assessed for mortality.

[4] = test system: corn planthopper (Peregrinus maidis (Ashmead)); experiment: whole plant or invertebrate; type: in vivo; conditions: for mortality at 10 ppm / mortality at 50 ppm / mortality at 250 ppm: Peregrinus maidis, 144 h, 6 days; for Control Efficacy CPH: corn planthopper
Method in brief: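 Corn plants 3-4 days old were sprayed at 250, 50 and/or 10 ppm in 10% acetone with 300 ppm non-ionic surfactant, three replicates, contact and/or systemic exposure. After 1 h drying, ~15-20 nymphs (18-to-21-day-old) were added; mortality assessed visually after 6 days at 22-24° C, 50-70% RH.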

[5] = test system: Western Flower Thrips (Frankliniellla occidentalis (Pergande)); experiment: Test G: control of Western Flower Thrips on Soleil bean plant, spray; type: in vivo; conditions: sprayed at 250 ppm; 6 days
Procedure: as §1
For evaluating control of the Western Flower Thrips (Frankliniellla occidentalis (Pergande)) through contact and/or systemic means, the test unit consisted of a small open container with a 5-7-day-old Soleil bean plant inside.
Test compounds were formulated and sprayed at 250 ppm. After spraying, the test units were allowed to dry for 1 hour, and then about 60 thrips (adults and nymphs) were added to each unit. A black, screened cap was placed on top, and the test units were held for 6 days at 25° C. and 45-55% relative humidity. Each test unit was then visually assessed for plant damage and insect mortality.

[6] = Vapor pressure estimated by GC/MS retention time correlation; type: physicochemical
Procedure: The procedures to obtain the vapor pressure values for both compounds are as follows: A solution of the test compound was prepared in acetonitrile at a concentration of 50 μg/mL and was then analyzed by gas chromatography/mass spectrometry (GC/MS). A linear correlation of retention times vs. known vapor pressure values of standard compounds is used to obtain an estimate of the vapor pressure of the test compounds by using interpolation. Detection and retention time of the subject compounds are confirmed by interpretation of the mass spectrum.

[7] = test system: green peach aphid (Myzus persicae (Sulzer)); experiment: Test D: control of green peach aphid on radish plant, spray; type: in vivo; conditions: for Control Efficacy GPA: green peach aphid
Method in brief: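 Radish plants (12-15 days old) pre-infested with 30-40 aphids, sprayed with compound in 10% acetone/water with 300 ppm non-ionic surfactant at 250 and/or 50 ppm, three replicates. Held 6 days at 19-21 °C, 50-70% relative humidity, then mortality scored visually.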

For `Fc1cncc(-c2nccs2)c1C(F)c1ccc(OC(F)(F)F)cc1` (stereo not shown) [Compound 33], the mortality at 250 ppm ([1]; sprayed at 250 ppm) was ≥ 80%, the mortality at 50 ppm ([2]; sprayed at 50 ppm) was ≥ 80% and the mortality at 250 ppm ([2]; sprayed at 250 ppm) was ≥ 80%. For the same molecule, the “control efficacy (40% or less feeding damage and/or 100% mortality)” value [3] was “very good to excellent levels of control efficacy”, the mortality at 10 ppm ([4]; sprayed at 10 ppm) was ≥ 80% and the mortality at 50 ppm ([4]; sprayed at 50 ppm) was ≥ 80%. For the same molecule, the mortality at 250 ppm ([4]; sprayed at 250 ppm) was ≥ 80% and the “control efficacy (30% or less plant damage and/or 100% mortality)” value [5] was “very good to excellent levels of control efficacy”.

For `Fc1cncc(-n2nccn2)c1C(F)c1ccc(OC(F)(F)F)cc1` (stereo not shown) [Compound 8], the mortality at 250 ppm ([1]; sprayed at 250 ppm) was ≥ 80%, the “control efficacy compared with compound A” value ([1]; PLH, at 250 ppm) was “significantly higher control efficacy than compound A” and the “Control Efficacy PLH” value ([1]; sprayed at 50 ppm) was 0. The “Control Efficacy PLH” value ([1]; sprayed at 250 ppm) was 93, the mortality at 50 ppm ([2]; sprayed at 50 ppm) was ≥ 80% and the mortality at 250 ppm ([2]; sprayed at 250 ppm) was ≥ 80%. The “control efficacy compared with compound A” value ([2]; CMA, down to 2 ppm) was “significantly higher control efficacy than compound A”, the Control Efficacy CMA ([2]; sprayed at 2 ppm) was 79% and the Control Efficacy CMA ([2]; sprayed at 10 ppm) was 88%. The Control Efficacy CMA ([2]; sprayed at 50 ppm) was 96%, the Control Efficacy CMA ([2]; sprayed at 250 ppm) was 80% and the “Vapor Pressure” value [6] was 6.04E−06. The “vapor pressure relative to compound A” value ([6]; compared with compound A) was ~1000 times lower, the “control efficacy compared with compound A” value ([7]; GPA, down to 2 ppm) was “significantly higher control efficacy than compound A” and the mortality at 50 ppm ([7]; Myzus persicae, 144 h, sprayed at 50 ppm, 6 days) was ≥ 80%. For the same molecule, the mortality at 250 ppm ([7]; Myzus persicae, 144 h, sprayed at 250 ppm, 6 days) was ≥ 80%, the Control Efficacy GPA ([7]; sprayed at 2 ppm) was 100% and the Control Efficacy GPA ([7]; sprayed at 10 ppm) was 94%. For the same molecule, the Control Efficacy GPA ([7]; sprayed at 50 ppm) was 100%, the Control Efficacy GPA ([7]; sprayed at 250 ppm) was 100% and the “control efficacy compared with compound A” value ([4]; CPH, down to 2 ppm) was “significantly higher control efficacy than compound A”. For the same molecule, the mortality at 50 ppm ([4]; sprayed at 50 ppm) was ≥ 80%, the mortality at 250 ppm ([4]; sprayed at 250 ppm) was ≥ 80% and the Control Efficacy CPH ([4]; sprayed at 2 ppm) was 89%. For the same molecule, the Control Efficacy CPH ([4]; sprayed at 10 ppm) was 95%, the Control Efficacy CPH ([4]; sprayed at 50 ppm) was 100% and the Control Efficacy CPH ([4]; sprayed at 250 ppm) was 100%.

In the case of `Fc1cncc(-c2ncco2)c1C(F)c1ccc(OC(F)(F)F)cc1` (stereo not shown) [Compound 32], the mortality at 250 ppm ([1]; sprayed at 250 ppm) was ≥ 80%, the mortality at 50 ppm ([2]; sprayed at 50 ppm) was ≥ 80% and the mortality at 250 ppm ([2]; sprayed at 250 ppm) was ≥ 80%. The “control efficacy (40% or less feeding damage and/or 100% mortality)” value [3] was “very good to excellent levels of control efficacy”, the mortality at 10 ppm ([4]; sprayed at 10 ppm) was ≥ 80% and the mortality at 50 ppm ([4]; sprayed at 50 ppm) was ≥ 80%. The mortality at 250 ppm ([4]; sprayed at 250 ppm) was ≥ 80% and the “control efficacy (30% or less plant damage and/or 100% mortality)” value [5] was “very good to excellent levels of control efficacy”.
